In series [1] the test system is Leishmania donovani. The experiment in a line: Antileishmanial activity against Leishmania donovani MHOM/ET/67/HU3 after 72 hrs by MTT assay. It counts as functional, organism-based. Conditions: MHOM/ET/67/HU3, 72 h. For orientation: Tetrazolium dyes change colour on reduction, which living cells bring about.
Series [2] in a line: Cytotoxicity against mouse peritoneal macrophages. It counts as cell-based, Peritoneal macrophage cell.
The nature of series [3]: Selectivity ratio of CC50 for mouse peritoneal macrophages to IC50 for Leishmania donovani MHOM/ET/67/HU3.

On to `O=[N+]([O-])c1ccc(-c2[nH]ccc3c4ccccc4nc2-3)cc1`, for which, in series [1], the IC50 is above 100 µM. In addition, the CC50 in series [2] is above 50 µM.

For the compound `O=C(Nc1ccc(-c2nccc3c2[nH]c2ccccc23)cc1)c1cccc2ccccc12`, in series [1], the IC50 was above 100 µM. For the same compound, in series [2], the half-maximal cytotoxic concentration (CC50) is above 50 µM.

`O=C(O)C1Cc2c([nH]c3ccccc23)C(c2ccc([N+](=O)[O-])cc2)N1` (stereo unspecified): the IC50 in series [1] is above 100 µM. In series [2], this compound had a CC50 above 50 µM.

`Nc1ccc(-c2nccc3c2[nH]c2ccccc23)cc1`: inhibition in series [1] was half-maximal at 46.6 µM (IC50). In addition, the CC50 in series [2] was above 50 µM.

Consider `CC(=O)Nc1ccc(-c2nccc3c2[nH]c2ccccc23)cc1`, for which half-maximal inhibition in series [1] (IC50) was put at 2.16 µM. Besides, in series [3], the “Ratio CC50/IC50” value is listed as above 20. The compound further showed a CC50 in series [2] above 50 µM.

As for `O=C(Nc1ccc(-c2nccc3c2[nH]c2ccccc23)cc1)c1ccc2ccccc2c1`, the half-maximal inhibitory concentration (IC50) in series [1] was 8.84 µM. Further, the CC50 in series [2] is above 50 µM.

Take `COc1ccc(C(=O)Nc2ccc(-c3nccc4c3[nH]c3ccccc34)cc2)cc1`: the IC50 in series [1] worked out at 12.3 µM. Moreover, the CC50 in series [2] was above 50 µM.

The compound `O=C(Nc1ccc(-c2nccc3c2[nH]c2ccccc23)cc1)c1cccs1` had a concentration for half-maximal inhibition (IC50) in series [1] of 15 µM. In addition, the CC50 in series [2] is above 50 µM.

In series [1], `CCCCCCCCCCCCCC(=O)Nc1ccc(-c2nccc3c2[nH]c2ccccc23)cc1` showed an IC50 above 100 µM. In series [2], this compound displayed a CC50 above 50 µM.

`O=C(Nc1ccc(-c2nccc3c2[nH]c2ccccc23)cc1)c1ccco1`: in series [1], it took 6.38 µM to reach half-maximal inhibition (IC50). For the same compound, in series [2], the CC50 was above 50 µM.

In series [1], `O=C(Nc1ccc(-c2nccc3c2[nH]c2ccccc23)cc1)c1ccccc1` displayed an IC50 of 9.68 µM. Moreover, the CC50 in series [2] was above 50 µM.

On to `C=CCCCCCCCCC(=O)Nc1ccc(-c2nccc3c2[nH]c2ccccc23)cc1`, for which the IC50 in series [1] is above 100 µM. This compound displayed a cytotoxic concentration (CC50) in series [2] above 50 µM.

Take `O=C(Nc1ccc(-c2nccc3c2[nH]c2ccccc23)cc1)c1ccc(F)cc1F`: the IC50 in series [1] is above 100 µM. Besides, the CC50 in series [2] was above 50 µM.

Regarding `O=C(Nc1ccc(-c2nccc3c2[nH]c2ccccc23)cc1)c1ccc(F)c(F)c1`, the IC50 in series [1] was 13.1 µM. Also, the CC50 in series [2] is above 50 µM.

Turning to `CC(C)(C)c1ccc(C(=O)Nc2ccc(-c3nccc4c3[nH]c3ccccc34)cc2)cc1`, in series [1], the IC50 is above 100 µM. In addition, the CC50 in series [2] was above 50 µM.

`Cc1ccc(C(=O)Nc2ccc(-c3nccc4c3[nH]c3ccccc34)cc2)cc1` displayed an IC50 in series [1] of 14.3 µM. Besides, in series [2], the CC50 is above 50 µM.

The compound `CCCCC(=O)Nc1ccc(-c2nccc3c2[nH]c2ccccc23)cc1` gave an IC50 in series [1] of 19.7 µM. This compound displayed a CC50 in series [2] above 50 µM.

The compound `CCCCCCCCCCCC(=O)Nc1ccc(-c2nccc3c2[nH]c2ccccc23)cc1` came in with an IC50 in series [1] above 100 µM. This compound also displayed a CC50 in series [2] above 50 µM.

As to `O=C(/C=C/c1ccccc1)Nc1ccc(-c2nccc3c2[nH]c2ccccc23)cc1`, in series [1], the IC50 was 7.7 µM. In series [2], this compound came in with a CC50 above 50 µM.

In turn, `Cc1cc(C(=O)Nc2ccc(-c3nccc4c3[nH]c3ccccc34)cc2)c(C)o1` yielded an IC50 in series [1] of 30.1 µM. In addition, the CC50 in series [2] is above 50 µM.

Compound `O=C(Nc1ccc(-c2nccc3c2[nH]c2ccccc23)cc1)c1ccc(C(F)(F)F)cc1` displayed an IC50 in series [1] above 100 µM. Moreover, the CC50 in series [2] is above 50 µM.

With `N#Cc1ccc(C(=O)Nc2ccc(-c3nccc4c3[nH]c3ccccc34)cc2)cc1`, the half-maximal inhibitory concentration (IC50) in series [1] was 5.31 µM. Moreover, the cytotoxic concentration (CC50) in series [2] was above 50 µM.

In series [1], `CCCCCCCCCCCCCCCCOP(=O)([O-])OCC[N+](C)(C)C` [MILTEFOSINE] showed a concentration for half-maximal inhibition (IC50) of 12.1 µM.

In general, IC50 refers to the concentration that inhibits the measured activity by half. A lower IC50 goes with greater potency. What is called CC50 is the concentration that lowers cell viability or growth by half.
